Data taken from patent US20020136785A1, “Ginseng berry extracts and pharmaceutical compositions from ginseng berry for the treatment of type 2 diabetes and obesity” (priority 2000, published 2002).

Key:
[1] = tested on: cultured bovine adrenal chromaffin cells; conditions: cultured bovine adrenal chromaffin cells (Kudo et al., 1998); cited from earlier work
[2] = Odani et al., 1983; cited from earlier work
[3] = biological target: T1, nuclear glucocorticoid receptor (Homo sapiens, UniProt P04150); conditions: Lee et al., 1997; Chung et al., 1998; cited from earlier work
T1 sequence (P04150 1-777): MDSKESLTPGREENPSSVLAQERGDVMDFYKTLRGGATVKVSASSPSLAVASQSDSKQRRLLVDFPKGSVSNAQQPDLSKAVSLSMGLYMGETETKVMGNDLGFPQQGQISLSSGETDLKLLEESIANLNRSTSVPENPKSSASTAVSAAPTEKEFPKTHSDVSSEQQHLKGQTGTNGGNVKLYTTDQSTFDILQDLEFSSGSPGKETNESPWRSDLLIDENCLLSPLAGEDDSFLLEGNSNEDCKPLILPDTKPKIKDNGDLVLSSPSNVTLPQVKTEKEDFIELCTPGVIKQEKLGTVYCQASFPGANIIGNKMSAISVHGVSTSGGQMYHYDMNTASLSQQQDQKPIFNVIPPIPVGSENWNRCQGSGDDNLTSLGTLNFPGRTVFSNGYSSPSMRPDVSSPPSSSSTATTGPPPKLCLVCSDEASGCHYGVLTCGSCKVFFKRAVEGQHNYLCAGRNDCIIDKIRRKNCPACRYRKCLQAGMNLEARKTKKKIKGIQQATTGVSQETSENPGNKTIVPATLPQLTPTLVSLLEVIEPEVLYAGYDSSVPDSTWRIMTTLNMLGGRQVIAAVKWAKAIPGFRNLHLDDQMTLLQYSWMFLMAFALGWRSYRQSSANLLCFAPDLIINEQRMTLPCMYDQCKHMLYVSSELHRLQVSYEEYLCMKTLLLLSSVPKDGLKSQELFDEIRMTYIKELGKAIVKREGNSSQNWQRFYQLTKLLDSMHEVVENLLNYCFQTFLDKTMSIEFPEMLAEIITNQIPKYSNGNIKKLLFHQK

[4] = Karikura et al., 1991; cited from earlier work
[5] = Hasegawa et al., 1995; cited from earlier work
B16-BL6 melanoma cells = B16-BL6 melanoma cells (Wakabayashi et al., 1998); cited from earlier work
ob/ob mice = assay: Intraperitoneal glucose tolerance test (IPGTT) in ob/ob mice; assay type: in vivo; conditions: 20 mg/kg, 12 days, compared to vehicle-treated ob/ob mice
Method: (§1) Animals were treated with Panax ginseng berry extract, Panax quinquefolius berry extract, ginsenoside Re, or a polysaccharide fraction from Panax quinquefolius . IPGTT was performed on Day 0 and Day 12. On the days of the test, animals were fasted for 4 hr (starting from 9:00AM) followed by an IP administration of glucose (2 g/kg). Blood glucose levels were determined in tail blood samples at 0 (prior to glucose administration), and 30, 60 and 120 min after glucose administration.

[6] = Body weight of ob/ob mice; assay type: in vivo
Method: The average body weight of adult ob/ob or db/db mice is almost twice that of their lean littermates. Animals were treated with Panax ginseng berry extract, Panax quinquefolius berry extract, ginsenoside Re, or a polysaccharide fraction from Panax quinquefolius and the body weights were determined.

lean mice = assay: Intraperitoneal glucose tolerance test (IPGTT) in lean mice; assay type: in vivo; conditions: 20 mg/kg, 12 days
Method: as §1

[7] = tested on: lean littermates (+/?) of C57BL/6J ob/ob mice; assay: Fasting blood glucose level in lean littermates of ob/ob mice; assay type: in vivo; conditions: after treatment with ginsenoside Re
Text: (§2) Male C57BL/6J ob/ob mice and their lean littermates (+/?) were obtained from Jackson Laboratory (Bar Harbor, Me.). In this obese, insulin-resistant mouse model, obesity is due to a mutation in the obese gene that encodes for leptin. […] The heterozygous mice are lean and normoglycemic. It is believed that the development of hyperglycemia in the ob/ob mouse is a consequence of epistatic interaction of the obesity mutation with diabetes-susceptibility genes. Adult animals at 10-18 weeks of age were used. Mice were housed in environmentally controlled conditions with a 12-h light/dark cycle and had free access to standard rodent pellet food, except when fasted before some experiments.
(§3) Animals were treated with Panax ginseng berry extract, Panax quinquefolius berry extract, ginsenoside Re or a polysaccharides fraction from Panax quinquefolius and the fasting blood glucose levels were measured. Fasting blood glucose levels were measured after animals were fasted for 4 hr (starting from 9:00AM), on Day 0 (before treatment), Day 5 (during treatment), and Day 12 (last day of treatment). Blood glucose levels were determined in tail blood samples at 1:00PM using a Glucose Analyzer (Hemocue AB, Angelholm, Sweden).

C57BL/6J ob/ob mice = assay: Fasting blood glucose level in ob/ob mice; assay type: in vivo; conditions: 20 mg/kg daily IP
Text: as §2, §3

[8] = tested on: streptozotocin-induced diabetic rats; conditions: streptozotocin-induced diabetic rats (Yokozawa et al., 1985); cited from earlier work
albumin mRNA = conditions: streptozotocin-induced diabetic rats (Yokozawa et al., 1996); cited from earlier work
[9] = tested on: hepatic tissue of streptozotocin-induced diabetic rats; conditions: streptozotocin-induced diabetic rats (Yokozawa et al., 1991); cited from earlier work

CC(C)=CCCC(C)(O)C1CCC2(C)C1C(O)CC1C3(C)CCC(O)C(C)(C)C3C(OC3OC(CO)C(O)C(O)C3OC3OC(C)C(O)C(O)C3O)CC12C [20(S) ginsenoside Rg2]
acetylcholine-evoked secretion of catecholamines [1]: inhibit
inhibitory effect compared with the other C-20 isomer [1]: greater inhibitory effect

CC(C)=CCC[C@](C)(O[C@@H]1O[C@H](CO)[C@@H](O)[C@H](O)[C@H]1O)[C@H]1CC[C@]2(C)[C@@H]1[C@H](O)C[C@@H]1[C@@]3(C)CC[C@H](O)C(C)(C)[C@@H]3[C@@H](O[C@@H]3O[C@H](CO)[C@@H](O)[C@H](O)[C@H]3O)C[C@]12C [Rg1]
absorption after ingestion [2]: poorly absorbed
ligand of the nuclear glucocorticoid receptor [3]: functional ligand

CC(C)=CCC[C@](C)(O[C@@H]1O[C@H](CO[C@@H]2O[C@H](CO)[C@@H](O)[C@H](O)[C@H]2O)[C@@H](O)[C@H](O)[C@H]1O)[C@H]1CC[C@]2(C)[C@@H]1[C@H](O)C[C@@H]1[C@@]3(C)CC[C@H](O[C@@H]4O[C@H](CO)[C@@H](O)[C@H](O)[C@H]4O[C@@H]4O[C@H](CO)[C@@H](O)[C@H](O)[C@H]4O)C(C)(C)[C@@H]3CC[C@]12C [Rb1]
absorption after ingestion [2]: poorly absorbed
metabolism by intestinal flora [4]: hydrolyzed to compound K

CC(C)=CCC[C@](C)(O[C@@H]1O[C@H](CO)[C@@H](O)[C@H](O)[C@H]1O)[C@H]1CC[C@]2(C)[C@@H]1[C@H](O)C[C@@H]1[C@@]3(C)CC[C@H](O)C(C)(C)[C@@H]3CC[C@]12C [compound K]
cytotoxicity of antineoplastic drugs [5]: increase the cytotoxicity
apoptosis (B16-BL6 melanoma cells): induce apoptosis

CC(C)=CCC[C@](C)(O[C@@H]1O[C@H](CO)[C@@H](O)[C@H](O)[C@H]1O)[C@H]1CC[C@]2(C)[C@@H]1[C@H](O)C[C@@H]1[C@@]3(C)CC[C@H](O)C(C)(C)[C@@H]3[C@@H](O[C@@H]3O[C@H](CO)[C@@H](O)[C@H](O)[C@H]3O[C@@H]3O[C@@H](C)[C@H](O)[C@@H](O)[C@H]3O)C[C@]12C [ginsenoside Re]
blood glucose levels at 60 min and 120 min following glucose administration, IPGTT (ob/ob mice): significantly decreased
body weight ([6]; 20 mg/kg group, Day 0): 53.1 ± 1.4 g
body weight ([6]; 20 mg/kg, Day 5): 52.9 ± 1.5 g
body weight ([6]; 20 mg/kg, Day 12): 54.7 ± 1.7 g
glucose tolerance, IPGTT (lean mice): not statistically affected
change of fasting blood glucose [7]: did not change sizably
fasting blood glucose (C57BL/6J ob/ob mice; Day 5, 4 hr fast): 188 ± 9.2 mg/dL
fasting blood glucose (C57BL/6J ob/ob mice; Day 12, 4 hr fast): 180 ± 10.8 mg/dL

CC(C)=CCC[C@](C)(O[C@@H]1O[C@H](CO[C@@H]2OC[C@H](O)[C@H](O)[C@H]2O)[C@@H](O)[C@H](O)[C@H]1O)[C@H]1CC[C@]2(C)[C@@H]1[C@H](O)C[C@@H]1[C@@]3(C)CC[C@H](O[C@@H]4O[C@H](CO)[C@@H](O)[C@H](O)[C@H]4O[C@@H]4O[C@H](CO)[C@@H](O)[C@H](O)[C@H]4O)C(C)(C)[C@@H]3CC[C@]12C [ginsenoside Rb2]
blood glucose levels [8]: significant decrease
albumin mRNA in the liver (albumin mRNA): increased albumin mRNA
ATP levels in hepatic tissue [9]: increased ATP levels

CC(C)=CCC[C@@](C)(O)[C@H]1CC[C@]2(C)[C@@H]1[C@H](O)C[C@@H]1[C@@]3(C)CC[C@H](O)C(C)(C)[C@@H]3[C@@H](O[C@@H]3O[C@H](CO)[C@@H](O)[C@H](O)[C@H]3O[C@@H]3O[C@@H](C)[C@H](O)[C@@H](O)[C@H]3O)C[C@]12C [20(R) ginsenoside Rg2]
acetylcholine-evoked secretion of catecholamines [1]: inhibit
